Reference: patent US7709634B2, “Amorphous form of rifaximin and processes for its preparation” (Apotex PharmAchem Inc., priority 2007, dated 2010)

Assay: Polymorphic stability on exposure to ambient humidity, checked by PXRD
Assay type: physicochemical
Conditions: exposure to ambient humidity for a period of 10 days
Source text: High yield of amorphous form of rifaximin is isolated by the processes of the present invention and it has high chemical purity and retains acceptable amounts of residual solvents.

polymorphic form after exposure to ambient humidity, as indicated by PXRD spectroscopy: did not change the polymorphic form
SMILES: CO[C@H]1/C=C/O[C@@]2(C)Oc3c(C)c(O)c4c(O)c(c5c(nc6cc(C)ccn65)c4c3C2=O)NC(=O)/C(C)=C\C=C\[C@H](C)[C@H](O)[C@@H](C)[C@@H](O)[C@@H](C)[C@H](OC(C)=O)[C@@H]1C [amorphous form of rifaximin, (2S,16Z,18E,20S,21S,22R,23R,24R,25S,26S,27S,28E)-5,6,21,23,25-pentahydroxy-27-methoxy-2,4,11,16,20,22,24,26-octamethyl-2,7-(epoxypentadeca-[1,11,13]trienimino)benzofuro[4,5-e]pyrido[1,2-α]-benzimidazole-1,15(2H)-dione,25-acetate]
